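Where inhibition never reached the appropriate level, the endpoint shown equals the highest concentration tested. Otherwise, values were interpolated linearly from a five-concentration, 48-hour dose response in 96-well plates. GI50 = concentration required for 50% inhibition of growth. TGI: concentration producing complete growth inhibition.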
Legend:
Assay in all cases: inhibition of tumour cell growth, NCI panel, 48 h
[1] = tested on: HS 578T breast
[2] = tested on: NCI-H226 lung
[3] = tested on: OVCAR-5 ovarian
[4] = tested on: SN12C renal
[5] = tested on: KM12 colon
[6] = tested on: NCI-H460 lung
[7] = tested on: SK-OV-3 ovarian
[8] = tested on: OVCAR-3 ovarian
[9] = tested on: RPMI-8226 leukemia
[10] = tested on: UACC-257 melanoma
[11] = tested on: MOLT-4 leukemia
[12] = tested on: SK-MEL-28 melanoma
[13] = tested on: LOX IMVI melanoma
[14] = tested on: HCT-116 colon
[15] = tested on: SR leukemia
[16] = tested on: UO-31 renal
[17] = tested on: A549 NSCLC
[18] = tested on: HOP-62 NSCLC
[19] = tested on: MDA-MB-231 breast
[20] = tested on: NCI-H23 lung
[21] = tested on: K-562 leukemia
[22] = tested on: SNB-19 CNS
[23] = tested on: PC-3 prostate
[24] = tested on: UACC-62 melanoma
[25] = tested on: MALME-3M melanoma
[26] = tested on: OVCAR-8 ovarian
[27] = tested on: 786-0 renal
[28] = tested on: OVCAR-4 ovarian
[29] = tested on: HT29 colon
[30] = tested on: SF-539 CNS
[31] = tested on: SF-295 CNS
[32] = tested on: SNB-75 CNS
[33] = tested on: IGROV1 ovarian
[34] = tested on: EKVX NSCLC
[35] = tested on: DU-145 prostate
[36] = tested on: A498 renal
[37] = tested on: ACHN renal
[38] = tested on: NCI-H522 lung
[39] = tested on: HCT-15 colon
[40] = tested on: U251 CNS
[41] = tested on: MCF7 breast
[42] = tested on: CAKI-1 renal
[43] = tested on: CCRF-CEM leukemia
[44] = tested on: SK-MEL-2 melanoma
[45] = tested on: HL-60(TB) leukemia
[46] = tested on: M14 melanoma
[47] = tested on: BT-549 breast
[48] = tested on: MDA-MB-435
[49] = tested on: TK-10 renal
[50] = tested on: NCI/ADR-RES ovarian
[51] = tested on: SK-MEL-5 melanoma
[52] = tested on: T-47D breast
[53] = tested on: SF-268 CNS
[54] = tested on: COLO 205 colon

`O=C(Nc1cc(Cl)cc(Cl)c1)c1ccc(NC2=C(Cl)C(=O)N(Cc3ccccc3)C2=O)cc1` showed a GI50 [1] of 1.99 µM, a TGI [1] of 5.49 µM and a GI50 [2] of 11.5 µM. It also gave a TGI [2] of 25.1 µM, a GI50 [3] of 4.68 µM and a TGI [3] of 17.8 µM. The GI50 [4] was 6.83 µM, the TGI [4] was 22.6 µM and the GI50 [5] was 6.43 µM. It also gave a TGI [5] of 26.2 µM, a GI50 [6] of 1.8 µM and a TGI [6] of 4.51 µM. It also gave a GI50 [7] of 22 µM, a TGI [7] of 73.7 µM and a GI50 [8] of 1.99 µM. It also gave a TGI [8] of 5.37 µM, a GI50 [9] of 1.74 µM and a TGI [9] of 4.2 µM. For the same molecule, the GI50 [10] was 11.5 µM, the TGI [10] was 27.1 µM and the GI50 [11] was 1.51 µM. For the same molecule, the TGI [11] was 4.91 µM, the GI50 [12] was 41.9 µM and the TGI [12] was greater than 100 µM. The GI50 [13] was 2.21 µM, the TGI [13] was 5.86 µM and the GI50 [14] was 0.743 µM. It also gave a TGI [14] of 3.76 µM, a GI50 [15] of 1.51 µM and a TGI [15] of 4.81 µM. For the same molecule, the GI50 [16] was 2.29 µM, the TGI [16] was 6.01 µM and the GI50 [17] was 10.8 µM. The TGI [17] was 32.4 µM, the GI50 [18] was 4.21 µM and the TGI [18] was 17.8 µM. It also gave a GI50 [19] of 5.74 µM, a TGI [19] of 22.4 µM and a GI50 [20] of 4.16 µM. The TGI [20] was 16.3 µM, the GI50 [21] was 2.31 µM and the TGI [21] was 6.93 µM. For the same molecule, the GI50 [22] was 41.7 µM, the TGI [22] was greater than 100 µM and the GI50 [23] was 3.29 µM. For the same molecule, the TGI [23] was 12.7 µM, the GI50 [24] was 4.13 µM and the TGI [24] was 16.7 µM. It also gave a GI50 [25] of 14.6 µM, a TGI [25] of 30.4 µM and a GI50 [26] of 2.62 µM. For the same molecule, the TGI [26] was 6.32 µM, the GI50 [27] was 2.87 µM and the TGI [27] was 8.74 µM. For the same molecule, the GI50 [28] was 18.6 µM, the TGI [28] was greater than 100 µM and the GI50 [29] was 16.8 µM. The TGI [29] was greater than 100 µM, the GI50 [30] was 3.5 µM and the TGI [30] was 13.7 µM. It also gave a GI50 [31] of 2.49 µM, a TGI [31] of 13.6 µM and a GI50 [32] of 35.4 µM. It also gave a TGI [32] of 74.5 µM, a GI50 [33] of 1.57 µM and a TGI [33] of 3.32 µM. For the same molecule, the GI50 [34] was 13.9 µM, the TGI [34] was 28.7 µM and the GI50 [35] was 0.96 µM. The TGI [35] was 6.91 µM, the GI50 [36] was 8.06 µM and the TGI [36] was 22.2 µM. The GI50 [37] was 1.82 µM, the TGI [37] was 7.77 µM and the GI50 [38] was 7.78 µM. For the same molecule, the TGI [38] was 25.7 µM, the GI50 [39] was 4.68 µM and the TGI [39] was 19.7 µM. The GI50 [40] was 3.04 µM, the TGI [40] was 12.8 µM and the GI50 [41] was 1.29 µM. The TGI [41] was 4.86 µM, the GI50 [42] was 0.799 µM and the TGI [42] was 2.98 µM. For the same molecule, the GI50 [43] was 3.17 µM, the TGI [43] was 12.1 µM and the GI50 [44] was 12.7 µM. It also gave a TGI [44] of 33.9 µM, a GI50 [45] of 1.55 µM and a TGI [45] of 4.43 µM. The GI50 [46] was 9.37 µM, the TGI [46] was 24.2 µM and the GI50 [47] was 4.59 µM. It also gave a TGI [47] of 19.3 µM, a GI50 [48] of 11.7 µM and a TGI [48] of 25.2 µM. The GI50 [49] was 19.5 µM, the TGI [49] was 51.5 µM and the GI50 [50] was 11.3 µM. It also gave a TGI [50] of 26.7 µM, a GI50 [51] of 1.57 µM and a TGI [51] of 3.19 µM. It also gave a GI50 [52] of 30.9 µM, a TGI [52] greater than 100 µM and a GI50 [53] of 2.55 µM. For the same molecule, the TGI [53] was 7.46 µM, the GI50 [54] was 28.6 µM and the TGI [54] was greater than 100 µM.

— PubChem BioAssay (NCI)
